Laboratory results taken from patent US12486302B2, “Somatostatin receptor antagonist compounds and methods of using the same” (CDRD VENTURES INC., priority 2016, dated 2025).
Where a SMILES comes first, the peptide text is derived from it. Bridges are numbered along the chain shown (N, C = ends). [ ]: non-standard residue; d: D form. dPhe(4-CONH2) = NC(=O)c1ccc(C[C@@H](N)C(=O)O)cc1; Phe(4-Cl) = N[C@@H](Cc1ccc(Cl)cc1)C(=O)O; Lys(Me) = CNCCCC[C@H](N)C(=O)O

Key:
SSTR1 = SSTR1 (Homo sapiens, UniProt P30872); assay: PathHunter β-Arrestin assay, antagonist mode, SSTR1; type: cell-based; conditions: agonist challenge at EC80
Chain of SSTR1 (P30872 whole entry, the tested form may be a part): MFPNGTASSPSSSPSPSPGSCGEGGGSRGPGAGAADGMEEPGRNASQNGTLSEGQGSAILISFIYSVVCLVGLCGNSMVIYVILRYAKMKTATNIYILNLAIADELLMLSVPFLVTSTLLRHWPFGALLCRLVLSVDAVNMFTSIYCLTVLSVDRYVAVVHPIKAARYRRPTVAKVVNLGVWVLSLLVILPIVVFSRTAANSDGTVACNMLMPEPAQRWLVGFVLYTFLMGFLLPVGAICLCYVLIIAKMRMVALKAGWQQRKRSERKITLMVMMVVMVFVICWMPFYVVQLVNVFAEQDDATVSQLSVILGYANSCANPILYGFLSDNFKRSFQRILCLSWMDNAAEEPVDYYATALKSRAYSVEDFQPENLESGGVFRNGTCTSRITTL
Procedure: (§1) The PathHunter® β-Arrestin assay monitors the activation of a GPCR in a homogenous, non-imaging assay format using a technology developed by DiscoveRx called Enzyme Fragment Complementation (EFC) with β-galactosidase (β-Gal) as the functional reporter. […] EA is fused to β-Arrestin and […] is fused to the GPCR of interest. When the GPCR is activated and β-Arrestin is recruited to the receptor, ED and EA complementation occurs, restoring β-Gal activity which is measured using chemiluminescent PathHunter® Detection Reagents. For antagonist determination, cells were pre-incubated with the compounds followed by agonist challenge at the EC80 concentration. Data was normalized to the maximal and minimal response observed in the presence of EC80 ligand and vehicle. Compound activity was analyzed using CBIS data analysis suite ChemInnovation, CA). Percentage inhibition was calculated using the following formula: % Inhibition=100%×(1−(mean signal of test sample-mean signal of vehicle control)/(mean signal of EC80 control-mean signal of vehicle control)). Percentage inhibition was calculated at 10 concentrations in steps on a Log 3 scale ranging from […] to 5e-5 μM. The results were plotted for IC50 calculation.

[1] = molecular target: somatostatin type 2 (SSTR2) receptors (Homo sapiens, UniProt P30874); assay: PathHunter β-Arrestin assay, antagonist mode, SSTR2; type: cell-based; conditions: agonist challenge at EC80
Chain of somatostatin type 2 (SSTR2) receptors (P30874 whole entry): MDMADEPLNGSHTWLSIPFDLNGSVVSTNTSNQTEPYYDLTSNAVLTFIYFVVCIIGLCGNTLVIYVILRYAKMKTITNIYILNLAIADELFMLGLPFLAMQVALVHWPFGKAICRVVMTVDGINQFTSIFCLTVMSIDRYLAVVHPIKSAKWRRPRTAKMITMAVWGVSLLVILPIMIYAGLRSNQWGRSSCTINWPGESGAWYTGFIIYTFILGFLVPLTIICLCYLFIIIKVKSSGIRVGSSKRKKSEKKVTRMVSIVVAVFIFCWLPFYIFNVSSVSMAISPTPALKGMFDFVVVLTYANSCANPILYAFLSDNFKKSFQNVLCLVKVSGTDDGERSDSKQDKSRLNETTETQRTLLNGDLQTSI
In short: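 Cells co-expressing PK-tagged human receptor and EA-β-Arrestin were pre-incubated with compound, then challenged with agonist at EC80. β-Gal complementation read by chemiluminescence; % inhibition normalized to EC80 and vehicle controls at 10 concentrations (log 3 steps from 1 μM down to 5e-5 μM), fitted for IC50.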

SSTR3 = SSTR3 (Homo sapiens, UniProt P32745); assay: PathHunter β-Arrestin assay, antagonist mode, SSTR3; type: cell-based; conditions: agonist challenge at EC80
Chain of SSTR3 (P32745 whole entry): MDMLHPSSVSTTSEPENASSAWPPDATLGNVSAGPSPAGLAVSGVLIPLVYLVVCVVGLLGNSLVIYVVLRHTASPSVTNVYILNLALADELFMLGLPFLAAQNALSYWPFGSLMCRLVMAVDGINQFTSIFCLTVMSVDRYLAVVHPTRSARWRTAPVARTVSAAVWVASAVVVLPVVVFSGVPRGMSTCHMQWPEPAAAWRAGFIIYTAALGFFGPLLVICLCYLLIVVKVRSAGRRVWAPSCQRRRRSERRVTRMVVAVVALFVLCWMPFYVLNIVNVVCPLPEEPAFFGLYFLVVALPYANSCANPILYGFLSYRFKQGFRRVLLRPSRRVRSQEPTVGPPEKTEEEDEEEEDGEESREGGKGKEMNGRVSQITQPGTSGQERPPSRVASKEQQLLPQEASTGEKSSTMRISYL
Procedure: as §1

SSTR4 = SSTR4 (Homo sapiens, UniProt P31391); assay: PathHunter β-Arrestin assay, antagonist mode, SSTR4; type: cell-based; conditions: agonist challenge at EC80
Chain of SSTR4 (P31391 whole entry): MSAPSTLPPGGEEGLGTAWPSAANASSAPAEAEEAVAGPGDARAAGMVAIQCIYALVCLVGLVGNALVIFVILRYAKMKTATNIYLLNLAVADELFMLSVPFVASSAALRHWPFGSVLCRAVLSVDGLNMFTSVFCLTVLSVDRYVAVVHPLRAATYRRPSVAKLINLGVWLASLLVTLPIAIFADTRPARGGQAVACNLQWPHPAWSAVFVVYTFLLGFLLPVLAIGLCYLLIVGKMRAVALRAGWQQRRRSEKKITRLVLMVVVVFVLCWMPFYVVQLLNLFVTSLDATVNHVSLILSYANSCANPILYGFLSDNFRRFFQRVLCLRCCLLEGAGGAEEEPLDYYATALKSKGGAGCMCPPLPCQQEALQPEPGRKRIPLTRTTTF
Procedure: as §1

SSTR5 = SSTR5 (Homo sapiens, UniProt P35346); assay: PathHunter β-Arrestin assay, antagonist mode, SSTR5; type: cell-based; conditions: agonist challenge at EC80
Chain of SSTR5 (P35346 whole entry): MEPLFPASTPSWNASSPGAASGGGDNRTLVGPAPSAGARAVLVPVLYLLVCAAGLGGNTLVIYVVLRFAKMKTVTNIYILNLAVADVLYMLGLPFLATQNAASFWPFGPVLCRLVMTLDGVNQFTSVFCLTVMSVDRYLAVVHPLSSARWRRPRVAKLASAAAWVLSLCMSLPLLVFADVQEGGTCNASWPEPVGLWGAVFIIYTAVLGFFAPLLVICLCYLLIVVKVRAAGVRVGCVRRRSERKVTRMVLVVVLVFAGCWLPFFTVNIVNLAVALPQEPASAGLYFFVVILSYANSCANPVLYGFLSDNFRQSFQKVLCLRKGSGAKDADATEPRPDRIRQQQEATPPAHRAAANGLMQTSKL
Procedure: as §1

[2] = test system: STZ diabetic Sprague Dawley rats; assay: Hypoglycemic Challenge #1 (10 U/kg insulin) in STZ diabetic rats; type: in vivo, rat; conditions: for period after insulin with significantly higher BG values compared with Vehicle Control: 2-Way ANOVA, insulin 10 U/kg; for peak glucagon value: saphenous blood, 0 to 100 minutes after insulin dosing
Procedure: (§2) Male Sprague Dawley rats (initial weight 150-175 g) were purchased from Charles River Laboratories (Montreal, QC, Canada). Rats were housed in the York University Vivarium in a 12-hour light dark cycle. All animals were fed a standard rodent chow diet (14% fat, 54% carbohydrates, […] & 3.0 calories/g of food) and water ad libitum. After a minimum of one week of acclimation, all animals received an intraperitoneal injection of streptozotocin (STZ) (Sigma) at a dose of 65 mg/kg body weight. After STZ injection, animals were provided with sugar water (5% solution) overnight. Any animals whose blood glucose was not greater than 10 mM within 2 days of STZ injection received a second injection.
One week after induction of diabetes, insulin treatment was initiated to maintain blood glucose values within a reasonable glucose controlled range in the fasted state (8-20 mM). Insulin pellets (LinChin, Toronto, ON, Canada) were implanted subcutaneously in any rat with blood glucose over 20 mM. Briefly, animals were anesthetized via inhaled isoflurane and pellets were implanted subcutaneously within the scapular region. One week later animals underwent their first hypoglycemic challenge (Hypoglycemic Challenge #1), followed by a second hypoglycemic challenge (Hypoglycemic Challenge #2) the following week (see below). Throughout the study, daily animals checks were conducted to assess body weight, blood glucose as well as food/calorie consumption.
Animals were divided into groups and received Compound 4, or Compound 24 or a corresponding dose of vehicle. Compounds were given 1 hour prior to commencement of the hypoglycemic challenge. On the morning of the hypoglycemic challenge, food was removed from the cage and a plasma sample was collected as baseline (prior to compound/vehicle administration), one-hour post drug/vehicle administration and at set points throughout the challenges.
For Hypoglycemic Challenge #1, hypoglycemia was induced via subcutaneous administration of a bolus of insulin (10U Novo Rapid insulin/kg body weight). Blood glucose was assessed every 10 minutes via saphenous vein puncture. Additionally, plasma was collected from the saphenous vein every 20 minutes, until 100-minutes post insulin administration. An additional plasma sample was collected 4-hours post drug administration (3 hours post insulin bolus) for mass spectrometry analysis of the compounds in plasma.

[3] = test system: STZ diabetic Sprague Dawley rats; assay: Hypoglycemic Challenge #2 (20 U/kg insulin) in STZ diabetic rats; type: in vivo, rat; conditions: 20 U/kg insulin challenge; target BG 2.5 mM; N=9
Procedure: as §2
One week after induction of diabetes, insulin treatment was initiated to maintain blood glucose values within a reasonable glucose controlled range in the fasted state (8-20 mM). Insulin pellets (LinChin, Toronto, ON, Canada) were implanted subcutaneously in any rat with blood glucose over 20 mM. […]
One week after the first hypoglycemia challenge, a second similar hypoglycemic challenge (Hypoglycemia Challenge #2) was conducted; however this time a higher dose of insulin was given to insure that severe hypoglycemia developed (20U Novo Rapid/kg body weight). Blood glucose was monitored, every 5-10 min, via saphenous vein puncture. […]

Row | SMILES | IC50 (SSTR1) | IC50 [1] | IC50 (SSTR3) | IC50 (SSTR4) | IC50 (SSTR5) | period after insulin with significantly higher BG values compared with Vehicle Control ([2]; N=9) | time at which rats first became hypoglycemic (BG threshold 3.9 mM) ([2]; 2 of 9 rats, after insulin 10 U/kg) | average time to onset of hypoglycemia (BG first reached 3.9 mM) ([2]; after 10 U/kg insulin dose, interpolated from BG curves, N=9) | incidence of severe hypoglycemia (BG threshold 1.9 mM) ([2]; after 150 minutes) | AUC of blood glucose below the 3.9 mM threshold (extent of hypoglycemia) ([2]; compound at t=-60 min, insulin 10 U/kg at t=0, N=9) | number of rats that never became hypoglycemic ([2]; of 9 rats, BG threshold 3.9 mM) | peak glucagon value ([2]; N=9) | average portal blood glucagon concentration at hypoglycemia [3] | incidence of severe hypoglycemia (BG threshold 1.9 mM) ([2]; after 130 minutes)
1 | CNCCCC[C@@H]1NC(=O)[C@@H](Cc2ccc(C(N)=O)cc2)NC(=O)[C@H](Cc2ccc(O)cc2)NC(=O)[C@H](NC(=O)[C@@H](N)Cc2ccc(Cl)cc2)CSSC[C@@H](C(=O)N[C@H](Cc2ccc(O)cc2)C(N)=O)NC(=O)[C@H]([C@@H](C)O)NC1=O [Compound 24, H-Cpa-cyclo[D-Cys-Tyr-D-Phe(4-carbamoyl)-Lys(N^ε-Me)-Thr-Cys]-D-Tyr-NH2] (H-[Phe(4-Cl)][dC]Y[dPhe(4-CONH2)][Lys(Me)]TC[dY]-NH2; disulfide 2-7) | > 1000 nM | 0.96 nM | > 1000 nM | > 1000 nM | > 1000 nM | 40 min | 40 min | 97 min | 44% | 55 mM·min | 1 | 175 pg/mL | 801 pg/mL | 
2 | C[C@@H](O)[C@@H]1NC(=O)[C@H](CCCCN)NC(=O)[C@@H](Cc2ccc(C(N)=O)cc2)NC(=O)[C@H](Cc2ccc(O)cc2)NC(=O)[C@H](NC(=O)[C@@H](N)Cc2ccc(Cl)cc2)CSSC[C@@H](C(=O)N[C@H](Cc2ccc(O)cc2)C(N)=O)NC1=O [Compound 4, H-Cpa-cyclo[D-Cys-Tyr-D-Phe(4-carbamoyl)-Lys-Thr-Cys]-D-Tyr-NH2] | > 1000 nM | 17 nM | > 1000 nM | > 1000 nM | > 1000 nM | 20 min |  |  |  |  |  | 180 pg/mL | 462 pg/mL | 33%
